According to patent publication US20160244411A1, “TAU IMAGING PROBE” (CLINO LTD., priority 2013, published 2016):
Where two headings read alike, the source gives them in different places. Each block holds one compound with its values, some of them ahead of it.

Experiments:
[1] = target: AD brain tissue homogenates (Homo sapiens, UniProt P10636); test: Competitive binding test using [3H]THK-5117 as radio ligand with AD brain tissue homogenates; settings: 2 nM [3H]THK-5117, 100 μg homogenate, 3 hours room temperature
Description: Binding Experiment (1) with AD Brain Tissue Homogenates Competitive Binding Test Using [^3H]THK-5117 as Radio Ligand
PBS (0.1% BSA) was used as an assay buffer, and the concentration of TI-IK-5105S or THK-5105R was adjusted with 2 nM [^3H] THK-5117 to 10^−5 to 10^−10 M in a reaction system (200 μL) containing 100 μg of the homogenates, and the competitive tests were then carried out. A nonspecific binding was measured with 2 μM of THK-5117. After incubation at room temperature for 3 hours, a glass filter plate was used to separate [^3H]THK-5117 bound to the homogenates and unbound [^3H] THK-5117, and the filter plate was washed, and then to the separated filter was added liquid scintillation cocktail, and the bound radioactivity was measured on a liquid scintillation counter. The data was analyzed by analysis software GraphPad Prism (Ver. 5). The competitive tests were carried out similarly on THK-5117S, THK-5117R, THK-5151S, and THK-5151R.

amyloid β (Aβ) = test: Tissue binding test with 10 AD homogenate samples, correlation with Aβ concentration; design: species or system human; settings: 1 nM probe, 100 μg tissue, 1 hour incubation
Description: (§1) Binding Experiment (2) with AD Brain Tissue Homogenates Organization Binding Evaluation Experiment of [^18F]THK-5105S
(§2) According to the above-mentioned assay buffer, nonspecific binding measurement, and filter separation operation, using 10 kinds of AD homogenate samples each having different tau concentration and amyloid β (Aβ) concentration, the reaction system was adjusted such that the tissue concentration was made 100 μg and [^18F]THK-5105S concentration was made 1 nM, and the binding test (1 hour incubation) was carried out in the reaction system.
(§3) As comparative example, the binding test was carried out also on [^18F]THK-5105R according to the similar method. The tau concentration or Aβ concentration was plotted on horizontal axis […], and the bound amount of [^18F]THK-5105S and [^18F]THK-5105R was plotted on vertical axis, and the correlation thereof was evaluated.
(§4) This means that when imaging, [^18F]THK-5105S can be detected the change of the tau concentration more sensitively.

[2] = Dynamic evaluation of normal mouse brain by small animal PET; type: in vivo, ICR mouse
Description: For experiments in small animal PET (evaluation of its brain delivery), Polysorbate 80 was added to the ethanol-eluted fraction, from which the ethanol was removed using an evaporator. The [^18F] THK-5105S containing radioactive residue within the flask was dissolved in physiological saline and the solution prepared was used as a solution for injection.
In this experiment, […] was administered intravenously via tail to ICR mouse (male 6 to 7 weeks old) under isoflurane anesthesia (1.5%), and the time-change of radioactivity distribution in brain was measured on Clairvivopet/CT (manufactured by Shimadzu Corporation, Kyoto). The emission scan was started simultaneously with the administration of the probe, and measured in 3D list mode for 120 min. After imaging, 35 frames (10×60 s, 10×120 s, […]) were reconstructed, and a region of interest was set in the brain, and quantified as SUV, and a time-activity curve (TAC) was created, and the Dynamism of the both probes were compared.
THK-5105R. In order to compare the disappearance change, the peak values of the TAC for both probes were converted into 100%, and the TAC was then shown as FIG. 7B. As evident from the TACs, [^18F]THK-51055 has larger ratio of disappearance per hour than [^18F]THK-5105R, that is, has more rapid rate of disappearance.
THK-5105R, and can therefore detect tau lesion with more excellent selectivity.

tau = test: Tissue binding test with 10 AD homogenate samples, correlation with tau concentration; design: species or system human; settings: 1 nM probe, 100 μg tissue, 1 hour incubation, in comparison with [18F]THK-5105R
Description: as §1, §2, §3, §4

tau lesion region = test: Autoradiography of hippocampus sections of an Alzheimer's disease patient; type: binding, human; settings: AD hippocampus section, about 400 μCi/ml, in comparison with the corresponding R-form
Description: A brain specimen in hippocampus of the patient which was definitively-diagnosed as Alzheimer's disease pathologically was used. A paraffin-embedded brain tissue was sliced by 6 μm or 8 μm thick, and stretched on a glass slide, and dried. The paraffin brain sections were deparaffinized by washing sequentially with xylene 10 min.×2, 100% ethanol 5 min.×2, 90% ethanol 5 min., and flowing water 10 min. After deparaffinization, the sections were immersed in PBS. Each of about 400 μCi/ml of [^18F]THK-5105S and [^18F]THK-5105R was added dropwise to the sections, and the sections were allowed to a reaction at room temperature for 10 min. Thereafter, the sections were immersed in distilled water for 2 min., and successively, shaked lightly in 50% EtOH for 2 min., and thereafter immersed in distilled water for 2 min. again, and dried on paraffin stretching plate. Then, the sections were contacted with imaging plate, and allowed to stand overnight, and on next day, the imaging was read on BAS5000 (manufactured by FUJIFILM Holdings Corporation).
The autoradiography experiments were also carried out similarly on [^18F]THK-5151S and [^18F]THK-5151R.
THK-5105R and [^18F] THK-5151R in tau lesion region, which means that they binds more strongly to tau pathology.

[3] = system: AD hippocampus tissue homogenate (tau lesion); test: Saturation binding experiment with AD hippocampus tissue homogenate; design: species or system human; settings: 0.1 to 100 nM
Description: Further, according to the above-mentioned assay buffer, nonspecific binding measurement, and filter separation operation, each saturation binding experiment of [^18F]THK-5151S and [^18F]THK-5151R was carried out with AD hippocampus tissue homogenate. Zero point one (0.1) to 100 nM of each tested substance was incubated with hippocampus homogenate, and then filtered with a filter, washed, and then measured radioactivity supplemented by the filter, and thereby calculated as total binding and nonspecific binding at each concentration. The data was analyzed with GraphPad Prism (Ver. 5) to calculate binding dissociation constants Kd and Bmax. The binding curve of the results and the analysis results are shown as FIG. 6c.

[4] = Dynamic evaluation of normal mouse brain by biodistribution method; type: in vivo, ICR mouse
Description: A saline comprising [^18F]THK-5105S or [18F]THK-5105R was administered intravenously via tail to ICR mouse (male 6 to 7 weeks old), and the time change of radioactivity distribution in brain was measured on Clairvivopet/CT (manufactured by Shimadzu Corporation, Kyoto). The brain dynamics was evaluated by the time-change of the accumulation rate of radioactivity in brain tissue after 2 min., 10 min., 30 min., 60 min., and 120 min.
The accumulation rate of radioactivity was calculated as the ratio of radioactivity per weight of evaluated tissue against total administered radioactivity (% Injected Dose/g of tissue; % ID/g). The measurement of the radioactivity was carried out with Gamma counter (Accuflex γ7000, measured by Hitachi-Aloka Medical, Tokyo). The experimental procedure was as follows. After administering the label compound intravenously via tail at 2 min., 10 min., 30 min., 60 min., and 120 min., cervical dislocation of mouse was performed under ether anesthesia, and organ tissues were extracted. The radioactivity and the weight of each sample were measured, and the data was analyzed to calculate % ID/g. Also, as the evaluation index for the disappearance from the brain, the divided value of the accumulation rate at 2 min. after administration by the accumulation rate at 60 min. after administration (2 min./60 min. ratio) was calculated.

[5] = read-out: Ki Entorhinal cortex 601 pmol/g tissue
[6] = read-out: Ki Temporal lobe cortex (607.6 pmol/g tissue)
[7] = intravenous via tail, in comparison with [18F]THK-5105R

Sequence of AD brain tissue homogenates (P10636 623-695 limits assumed): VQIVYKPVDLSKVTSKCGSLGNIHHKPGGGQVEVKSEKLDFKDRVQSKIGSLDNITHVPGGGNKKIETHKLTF

SMILES: CN(C)c1ccc(-c2ccc3cc(OC[C@@H](O)CF)ccc3n2)cc1 [THK-5105R, reference compound]
Ki [1, 5]: 27.4 nM | Ki [1, 6]: 16.3 nM

SMILES: CN(C)c1ccc(-c2ccc3cc(OC[C@H](O)CF)ccc3n2)cc1 [THK-5105S]
Ki [1, 5]: 4.6 nM | Ki [1, 6]: 2.6 nM

SMILES: CNc1ccc(-c2ccc3cc(OCC(O)CF)ccc3n2)cc1 (centres unmarked) [THK-5117R, reference compound]
Ki [1, 6]: 25.7 ± 10.7 nM

SMILES: CNc1ccc(-c2ccc3cc(OC[C@H](O)CF)ccc3n2)cc1 [THK-5117S]
Ki [1, 6]: 9.4 ± 4.8 nM

SMILES: CN(C)c1ccc(-c2ccc3cc(OC[C@H](O)C[18F])ccc3n2)cc1 [[^18F]THK-5105S]
autoradiography imaging signal in tau lesion region (tau lesion region): stronger imaging signal

Further lines, with some results ahead:

Ki [1, 6]: 7.2 ± 1.27 nM
SMILES: CNc1ccc(-c2ccc3cc(OC[C@H](O)CF)ccc3n2)cn1 [THK-5151S]

SUV Ratio 5 min./30 min. ([2]; brain, intravenous via tail): 1.92 ± 0.3 | SUV Ratio 5 min./60 min. ([2]; brain, intravenous via tail): 3.67 ± 0.9 | SUV Ratio 5 min./120 min. ([2]; brain, intravenous via tail): 7.75 ± 1.6
SMILES: CN(C)c1ccc(-c2ccc3cc(OCC(O)C[18F])ccc3n2)cc1 (centres unmarked) [[^18F]THK-5105R, reference compound]
correlation of tissue bound amount with the Aβ concentration (amyloid β (Aβ)): could not be found to have a correlation with the Aβ concentration

tissue bound amount (tau): higher bound amount | SUV ratios 5 min./30 min., 5 min./60 min., 5 min./120 min. compared between probes ([2]; brain, in comparison with [18F]THK-5105R): significantly higher value | SUV Ratio 5 min./30 min. ([2]; brain, intravenous via tail): 2.70 ± 0.1 | SUV Ratio 5 min./60 min. ([2]; brain, intravenous via tail): 6.27 ± 0.6 | SUV Ratio 5 min./120 min. ([2]; brain, intravenous via tail): 19.2 ± 4.4
SMILES: CN(C)c1ccc(-c2ccc3cc(OC[C@H](O)CF)ccc3n2)cc1 [[^18F]THK-5105S]
correlation of tissue bound amount with the tau concentration (tau): extremely higher correlation with the tau concentration | correlation of tissue bound amount with the Aβ concentration (amyloid β (Aβ)): could not be found to have a correlation with the Aβ concentration | disappearance from normal brain tissue (time-activity curve) [2, 7]: disappeared more rapidly from normal brain tissue | retention into the normal brain tissue [2, 7]: lower retention into the normal brain tissue

Bmax/Kd value as bonding potential in comparison with [18F]THK-5151R [3]: about fourth times large Bmax/Kd value | Kd value in comparison with [18F]THK-5151R [3]: about one tenth small Kd value | accumulation rate of radioactivity in brain, 2 min. ([4]; 2 min. after intravenous administration, n = 4): 4.36 ± 0.19 % ID/g | accumulation rate of radioactivity in brain, 10 min. ([4]; 10 min. after intravenous administration, n = 4): 1.10 ± 0.19 % ID/g | accumulation rate of radioactivity in brain, 30 min. ([4]; 30 min. after intravenous administration, n = 4): 0.21 ± 0.03 % ID/g | accumulation rate of radioactivity in brain, 60 min. ([4]; 60 min. after intravenous administration, n = 4): 0.13 ± 0.03 % ID/g | accumulation rate of radioactivity in brain, 120 min. ([4]; 120 min. after intravenous administration, n = 4): 0.12 ± 0.02 % ID/g | 2 min./60 min. ratio ([4]; brain accumulation rate at 2 min. divided by that at 60 min.): 33 | accumulation rate value after the initial uptake, compared between probes ([4]; in comparison with [18F]THK-5151R): lower values | brain uptake shortly after administration ([4]; shortly after administration): about 4 % ID/g
SMILES: CNc1ccc(-c2ccc3cc(OC[C@H](O)CF)ccc3n2)cn1 [[^18F]THK-5151S]
autoradiography imaging signal in tau lesion region (tau lesion region): stronger imaging signal
